Laboratory results taken from US8541445B2, “Pyrazolopyridines” (Vertex Pharmaceuticals Incorporated, priority 2009, dated 2013).

Legend:
Assay type in all cases: biochemical
PKC alpha kinase = PKC alpha kinase (Homo sapiens, UniProt P17252); experiment: PKC alpha kinase inhibition, coupled-enzyme NADH absorbance assay; conditions: 4.5 nM PKC alpha kinase, 130 μM ATP, 100 μM CaCl2, 30° C.
Method: An assay buffer solution was prepared which consisted of 100 mM HEPES (pH 7.5), 10 mM MgCl2, 25 mM NaCl, 0.1 mM EDTA, 100 μM CaCl2 and 0.01% Brij. An enzyme buffer containing reagents to final assay concentrations of 0.002% Triton X-100, 100 μg/mL Phosphatidylserine, 20 μg/mL Diacylglycerol, 360 μM NADH, 3 mM phosphoenolpyruvate, […], 24 μg/mL lactate dehydrogenase, 2 mM DTT, 150 μM substrate peptide (RRRRRKGSFKRKA SEQ ID NO. 3) and 4.5 nM PKC alpha kinase was prepared in assay buffer. To 16 μL of this enzyme buffer, in a 384 well plate, was added 1 μL of VRT stock solution in DMSO. The mixture was allowed to equilibrate for 10 mins at 30° C. The enzyme reaction was initiated by the addition of 16 μL stock ATP solution prepared in assay buffer to a final assay concentration of 130 μM. Initial rate data was determined from the rate of change of absorbance at 340 nm (corresponding to stoichiometric consumption of NADH) using a Molecular Devices Spectramax plate reader (Sunnyvale, Calif.) over 15 mins at 30° C. For each Ki determination 12 data points covering the VRT concentration range of 0-20 μM were obtained in duplicate (DMSO stocks were prepared from an initial 10 mM VRT stock with subsequent 1:2 serial dilutions). Ki values were calculated from initial rate data by non-linear regression using the Prism software package (Prism 4.0a, Graphpad Software, San Diego, Calif.).

PKC theta kinase = PKC theta kinase (Homo sapiens, UniProt Q04759); experiment: PKC theta kinase inhibition, coupled-enzyme NADH absorbance assay; conditions: 18 nM PKC theta kinase, 240 μM ATP, 30° C.
Sequence of PKC theta kinase (Q04759 whole entry): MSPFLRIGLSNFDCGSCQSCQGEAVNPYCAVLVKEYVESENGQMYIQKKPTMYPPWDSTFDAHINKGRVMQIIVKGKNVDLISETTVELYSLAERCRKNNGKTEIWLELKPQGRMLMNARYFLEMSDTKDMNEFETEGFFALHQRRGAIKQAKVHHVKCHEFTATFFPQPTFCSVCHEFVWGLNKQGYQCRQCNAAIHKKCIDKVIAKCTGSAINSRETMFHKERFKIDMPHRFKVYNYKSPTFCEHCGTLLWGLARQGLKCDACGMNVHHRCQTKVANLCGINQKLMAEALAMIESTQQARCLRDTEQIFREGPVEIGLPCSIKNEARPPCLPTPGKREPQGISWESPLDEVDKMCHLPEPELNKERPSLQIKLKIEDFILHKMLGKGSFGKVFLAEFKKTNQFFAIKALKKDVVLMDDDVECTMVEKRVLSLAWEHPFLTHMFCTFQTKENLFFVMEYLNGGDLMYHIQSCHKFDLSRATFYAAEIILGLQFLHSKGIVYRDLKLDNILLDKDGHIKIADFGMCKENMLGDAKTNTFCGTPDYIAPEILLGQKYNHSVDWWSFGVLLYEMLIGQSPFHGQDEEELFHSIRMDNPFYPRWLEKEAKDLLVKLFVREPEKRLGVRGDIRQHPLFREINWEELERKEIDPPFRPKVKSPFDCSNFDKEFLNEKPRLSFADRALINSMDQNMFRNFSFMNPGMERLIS
Method: An assay buffer solution was prepared which consisted of 100 mM HEPES (pH 7.5), 10 mM MgCl2, 25 mM NaCl, 0.1 mM EDTA and 0.01% Brij. An enzyme buffer containing reagents to final assay concentrations of 0.00001% Triton X-100, 200 μg/mL Phosphatidylserine, 20 μg/mL Diacylglycerol, 360 μM NADH, 3 mM phosphoenolpyruvate, 70 μg/mL pyruvate kinase, 24 μg/mL lactate dehydrogenase, 2 mM DTT, 100 μM substrate peptide (ERMRPRKRQGSVRRRV SEQ ID NO. 1) and 18 nM PKC theta kinase was prepared in assay buffer. To 60 μL of this enzyme buffer, in a 384 well plate, was added 2 μL of VRT stock solution in DMSO. The mixture was allowed to equilibrate for 10 mins at 30° C. The enzyme reaction was initiated by the addition of 5 μL stock ATP solution prepared in assay buffer to a final assay concentration of 240 μM. Initial rate data was determined from the rate of change of absorbance at 340 nm (corresponding to stoichiometric consumption of NADH) using a Molecular Devices Spectramax plate reader (Sunnyvale, Calif.) over 15 mins at 30° C. For each Ki determination 12 data points covering the VRT concentration range of 0-20 μM were obtained in duplicate (DMSO stocks were prepared from an initial 10 mM VRT stock with subsequent 1:2 serial dilutions). Ki values were calculated from initial rate data by non-linear regression using the Prism software package (Prism 4.0a, Graphpad Software, San Diego, Calif.).

PKC delta kinase = PKC delta kinase (Homo sapiens, UniProt Q05655); experiment: PKC delta kinase inhibition, coupled-enzyme NADH absorbance assay; conditions: 46 nM PKC delta kinase, 150 μM ATP, 30° C.
Sequence of PKC delta kinase (Q05655 whole entry): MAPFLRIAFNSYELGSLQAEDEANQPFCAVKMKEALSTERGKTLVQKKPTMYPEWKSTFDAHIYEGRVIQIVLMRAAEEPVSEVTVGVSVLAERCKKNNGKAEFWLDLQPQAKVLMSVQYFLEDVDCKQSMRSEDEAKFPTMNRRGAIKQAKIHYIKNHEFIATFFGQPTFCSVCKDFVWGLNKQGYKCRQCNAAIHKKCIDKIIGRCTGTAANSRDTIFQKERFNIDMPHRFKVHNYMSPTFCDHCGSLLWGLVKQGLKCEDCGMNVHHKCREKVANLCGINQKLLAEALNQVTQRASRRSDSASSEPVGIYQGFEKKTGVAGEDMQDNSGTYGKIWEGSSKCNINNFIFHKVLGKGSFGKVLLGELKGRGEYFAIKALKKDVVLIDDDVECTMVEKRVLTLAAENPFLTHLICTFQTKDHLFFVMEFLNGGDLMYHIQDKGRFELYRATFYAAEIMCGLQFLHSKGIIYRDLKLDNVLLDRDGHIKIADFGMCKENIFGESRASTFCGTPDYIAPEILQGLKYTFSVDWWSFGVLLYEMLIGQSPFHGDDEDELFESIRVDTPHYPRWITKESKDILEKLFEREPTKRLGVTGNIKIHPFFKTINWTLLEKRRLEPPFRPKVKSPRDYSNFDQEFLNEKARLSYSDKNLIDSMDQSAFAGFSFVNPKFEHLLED
Method: An assay buffer solution was prepared which consisted of 100 mM HEPES (pH 7.5), 10 mM MgCl2, 25 mM NaCl, 0.1 mM EDTA and 0.01% Brij. An enzyme buffer containing reagents to final assay concentrations of 0.002% Triton X-100, 200 μg/mL Phosphatidylserine, 20 μg/mL Diacylglycerol, 360 μM NADH, 3 mM phosphoenolpyruvate, 70 μg/mL pyruvate kinase, 24 μg/mL lactate dehydrogenase, 2 mM DTT, 150 μM substrate peptide (ERMRPRKRQGSVRRRV SEQ ID NO. 2) and 46 nM PKC delta kinase was prepared in assay buffer. To 16 μL of this enzyme buffer, in a 384 well plate, was added 1 μL of VRT stock solution in DMSO. The mixture was allowed to equilibrate for 10 mins at 30° C. The enzyme reaction was initiated by the addition of 16 μL stock ATP solution prepared in assay buffer to a final assay concentration of 150 μM. Initial rate data was determined from the rate of change of absorbance at 340 nm (corresponding to stoichiometric consumption of NADH) using a Molecular Devices Spectramax plate reader (Sunnyvale, Calif.) over 15 mins at 30° C. For each Ki determination 12 data points covering the VRT concentration range of 0-20 μM were obtained in duplicate (DMSO stocks were prepared from an initial 10 mM VRT stock with subsequent 1:2 serial dilutions). Ki values were calculated from initial rate data by non-linear regression using the Prism software package (Prism 4.0a, Graphpad Software, San Diego, Calif.).

## N#CCc1csc(-c2ccnc3[nH]ncc23)n1 [Compound 1, 2-(2-(1H-pyrazolo[3,4-b]pyridin-4-yl)thiazol-4-yl)ethanenitrile]
PKC alpha kinase
  Ki: > 1250 nM
PKC theta kinase
  Ki: < 500 nM
PKC delta kinase
  Ki: < 2800 nM

## CC(C)(C#N)c1csc(-c2ccnc3[nH]ncc23)n1 [Compound 2, 2-(2-(1H-pyrazolo[3,4-b]pyridin-4-yl)thiazol-4-yl)-2-methyl propanenitrile]
PKC alpha kinase
  Ki: < 2800 nM
PKC theta kinase
  Ki: < 50 nM
PKC delta kinase
  Ki: < 500 nM

## CC(C)(CN)c1csc(-c2ccnc3[nH]ncc23)n1 [Compound 3, 2-(2-(1H-pyrazolo[3,4-b]pyridin-4-yl)thiazol-4-yl)-2-methylpropan-1-amine]
PKC alpha kinase
  Ki: < 2800 nM
PKC theta kinase
  Ki: < 50 nM
PKC delta kinase
  Ki: < 500 nM

## Cc1sc(-c2ccnc3[nH]ncc23)nc1C(C)(C)CN [Compound 4, 2-methyl-2-(5-methyl-2-(1H-pyrazolo[3,4-b]pyridin-4-yl)thiazol-4-yl)propan-1-amine]
PKC alpha kinase
  Ki: < 2800 nM
PKC theta kinase
  Ki: < 500 nM
PKC delta kinase
  Ki: < 500 nM

## CCC(C#N)c1csc(-c2ccnc3[nH]ncc23)n1 (stereo not drawn) [Compound 5]
PKC alpha kinase
  Ki: < 500 nM
PKC theta kinase
  Ki: < 50 nM
PKC delta kinase
  Ki: < 500 nM

## CCC(C)(C#N)c1csc(-c2ccnc3[nH]ncc23)n1 (stereo not drawn) [Compound 6]
PKC alpha kinase
  Ki: < 2800 nM
PKC theta kinase
  Ki: < 50 nM
PKC delta kinase
  Ki: < 500 nM

## CCC(C#N)(CC)c1csc(-c2ccnc3[nH]ncc23)n1 [Compound 7]
PKC alpha kinase
  Ki: < 500 nM
PKC theta kinase
  Ki: < 50 nM
PKC delta kinase
  Ki: < 500 nM

## CCC(C)(C#N)c1csc(-c2ccnc3[nH]nc(Cl)c23)n1 (stereo not drawn) [Compound 8]
PKC alpha kinase
  Ki: < 2800 nM
PKC theta kinase
  Ki: < 50 nM
PKC delta kinase
  Ki: < 500 nM

## CCC(CN)c1csc(-c2ccnc3[nH]ncc23)n1 (stereo not drawn) [Compound 9]
PKC alpha kinase
  Ki: > 1250 nM
PKC theta kinase
  Ki: < 50 nM
PKC delta kinase
  Ki: < 500 nM

## CCC(C)(CN)c1csc(-c2ccnc3[nH]ncc23)n1 (stereo not drawn) [Compound 10]
PKC alpha kinase
  Ki: < 2800 nM
PKC theta kinase
  Ki: < 50 nM
PKC delta kinase
  Ki: < 500 nM

## CCC(C)(CN)c1csc(-c2ccnc3[nH]nc(Cl)c23)n1 (stereo not drawn) [Compound 11]
PKC alpha kinase
  Ki: < 500 nM
PKC theta kinase
  Ki: < 50 nM
PKC delta kinase
  Ki: < 50 nM

## CC1(CN)CCCc2sc(-c3ccnc4[nH]ncc34)nc21 (stereo not drawn) [Compound 12, (4-methyl-2-(1H-pyrazolo[3,4-b]pyridin-4-yl)-4,5,6,7-tetrahydrobenzo[d]thiazol-4-yl)methanamine]
PKC alpha kinase
  Ki: > 1250 nM
PKC theta kinase
  Ki: < 500 nM
PKC delta kinase
  Ki: < 2800 nM

## CCC(C)(CN)c1csc(-c2ccnc3[nH]ncc23)c1 (stereo not drawn) [Compound 13, 2-(5-(1H-pyrazolo[3,4-b]pyridin-4-yl)thiophen-3-yl)-2-methylbutan-1-amine]
PKC alpha kinase
  Ki: < 500 nM
PKC theta kinase
  Ki: < 50 nM
PKC delta kinase
  Ki: < 500 nM

## CCC(C)(CN)c1ccsc1-c1ccnc2[nH]ncc12 (stereo not drawn) [Compound 14]
PKC alpha kinase
  Ki: > 1250 nM
PKC theta kinase
  Ki: < 500 nM
PKC delta kinase
  Ki: > 2000 nM

## CCC(C#N)n1cc(-c2ccnc3[nH]ncc23)cn1 (stereo not drawn) [Compound 15, 2-(4-(1H-pyrazolo[3,4-b]pyridin-4-yl)-1H-pyrazol-1-yl)butanenitrile]
PKC alpha kinase
  Ki: > 1250 nM
PKC theta kinase
  Ki: < 500 nM
PKC delta kinase
  Ki: < 2800 nM

## NCCn1cc(-c2ccnc3[nH]ncc23)cn1 [Compound 16]
PKC alpha kinase
  Ki: > 1250 nM
PKC theta kinase
  Ki: < 500 nM
PKC delta kinase
  Ki: < 2800 nM

## CCC(CN)n1cc(-c2ccnc3[nH]ncc23)cn1 (stereo not drawn) [Compound 17, 2-(4-(1H-pyrazolo[3,4-b]pyridin-4-yl)-1H-pyrazol-1-yl)butan-1-amine]
PKC alpha kinase
  Ki: > 1250 nM
PKC theta kinase
  Ki: < 2800 nM
PKC delta kinase
  Ki: < 2800 nM
